Reference: PMC8284453 (Antimicrobial Agents and Chemotherapy, 2021)
In brackets after ≈: the same amount, converted by molar mass. Several values for one entry are separate records, joined by “and”; a condition that tells them apart may be missing. Equal values may be shown once. Read-outs that look alike come from different tables or passages of the source.

How the values were obtained:
[1] = test system: E. cloacae ECL01 (TEM-72, ACT-1, P99AmpC); test: 24-h time-kill assay; type: cell-based; settings: Enterobacter cloacae; lowest concentration with ≥3-log10 CFU/ml reduction at 24 h; read-out: MBC
Procedure: (§1) In vitro antibacterial time-kill assay. […] Time-kill assays were performed in 14 ml glass tubes or deep-well storage plates with a bacterial inoculum in CAMHB of 5 × 10^5 CFU/ml. The tubes/plates were incubated at 37°C with shaking at 200 rpm, and aliquots were drawn at six time points (0, 2, 4, 6, 8, and 24 h) to conduct 0.5 log10 dilutions in CAMHB in 96-well plates that were incubated overnight at 37°C and used to ascertain viable bacterial counts. The lowest quantifiable amount by this method is 2 log10 CFU/ml.

[2] = test system: K. pneumoniae 752286 (OXA-48); test: 24-h time-kill assay; type: cell-based; settings: Klebsiella pneumoniae, 24 h
Procedure: as §1

[3] = test system: K. pneumoniae ATCC BAA-1705 (KPC-2); test: 24-h time-kill assay; type: cell-based; settings: Klebsiella pneumoniae, ATCCBAA1705; lowest concentration with ≥3-log10 CFU/ml reduction at 24 h; read-out: MBC
Procedure: as §1

E. coli ESBL4 (CTX-M-15) [4] = test: 24-h time-kill assay; type: cell-based
Procedure: as §1

[5] = test system: K. pneumoniae ATCC BAA-1705 (KPC-2); test: Broth microdilution MIC; type: cell-based; settings: Klebsiella pneumoniae, ATCCBAA1705
[6] = test system: Enterobacterales expressing class A carbapenemases (KPC); test: organism not typed; type: cell-based, K. pneumoniae, E. coli, E. cloacae, Klebsiella oxytoca
[7] = test system: Enterobacterales expressing class A ESBLs; test: organism not typed; type: cell-based, E. coli, K. pneumoniae
E. coli ESBL4 (CTX-M-15) [8] = test: Broth microdilution MIC; type: cell-based; settings: Escherichia coli
[9] = test system: isogenic strains of E. coli expressing Ambler class A, B, C, and D enzymes; test: microbe, parasite or virus in culture; type: cell-based, Escherichia coli
[10] = test system: E. cloacae ECL01 (TEM-72, ACT-1, P99AmpC); test: Broth microdilution MIC; type: cell-based; settings: Enterobacter cloacae

Nc1nc(/C(=C/CC(=O)O)C(=O)N[C@@H]2C(=O)N3C(C(=O)O)=CCS[C@H]23)cs1 [CTB, ceftibuten]
MBC [1]: > 32 µg/mL
MBC [2]: ≥ 128 µg/mL
MBC [3]: 16 µg/mL (≈ 39 µM)
MBC (E. coli ESBL4 (CTX-M-15) [4]; Escherichia coli, lowest concentration with ≥3-log10 CFU/ml reduction at 24 h, read-out: MBC): > 32 µg/mL
outcome of 24-h time-kill assay (E. coli ESBL4 (CTX-M-15) [4]; Fig. 3a, CTB 2 μg/ml with BLI at 4 μg/ml, CTB alone 8 μg/ml, amoxicillin 8/clavulanic acid 4 μg/ml, penems 2 μg/ml): initial killing, but the strains grew to control levels by 24 h
MIC [5]: 16 µg/mL (≈ 39 µM)
MIC50 [6]: 16 µg/mL (≈ 39 µM)
MIC90 [6]: ≥ 64 µg/mL
MIC90 ([6]; 25 isolates, BLI fixed at 4 μg/ml, AMC 2:1): ≥ 64 µg/mL
MIC ([6]; E. cloacae 847426 (KPC)): ≥ 64 µg/mL
MIC ([6]; E. cloacae 847429 (KPC)): 16 µg/mL (≈ 39 µM)
MIC ([6]; E. cloacae OIMGH49 (p99 AmpC, ACT-2, KPC-2, TEM-1)): ≥ 64 µg/mL
MIC ([6]; E. coli 786978 (KPC)): 32 µg/mL (≈ 78 µM)
MIC ([6]; K. oxytoca 847537 (KPC)): ≥ 64 µg/mL
MIC ([6]; K. oxytoca 847539 (KPC)): 0.5 µg/mL (≈ 1.22 µM)
MIC ([6]; K. pneumoniae 155140 (AmpC, KPC-2, SHV-12, TEM-1)): ≥ 64 µg/mL
MIC ([6]; K. pneumoniae 845661 (KPC)): 32 µg/mL (≈ 78 µM)
MIC ([6]; K. pneumoniae 845662 (KPC)): 16 µg/mL (≈ 39 µM)
MIC ([6]; K. pneumoniae 845665 (KPC)): 32 µg/mL (≈ 78 µM)
MIC ([6]; K. pneumoniae 845667 (KPC)): 16 µg/mL (≈ 39 µM)
MIC ([6]; K. pneumoniae 845670 (KPC)): 0.5 µg/mL (≈ 1.22 µM)
MIC ([6]; K. pneumoniae 845904 (KPC)): 1 µg/mL (≈ 2.44 µM)
MIC ([6]; K. pneumoniae 847204 (KPC)): 16 µg/mL (≈ 39 µM)
MIC ([6]; K. pneumoniae 847375 (KPC)): 8 µg/mL (≈ 19.5 µM)
MIC ([6]; K. pneumoniae 847378 (KPC)): 8 µg/mL (≈ 19.5 µM)
MIC ([6]; K. pneumoniae 847379 (KPC)): 8 µg/mL (≈ 19.5 µM)
MIC ([6]; K. pneumoniae 847383 (KPC)): 8 µg/mL (≈ 19.5 µM)
MIC ([6]; K. pneumoniae 847384 (KPC)): 8 µg/mL (≈ 19.5 µM)
MIC ([6]; K. pneumoniae 847387 (KPC)): 16 µg/mL (≈ 39 µM)
MIC ([6]; K. pneumoniae 847747 (KPC)): 4 µg/mL (≈ 9.75 µM)
MIC ([6]; K. pneumoniae 848832 (KPC)): 16 µg/mL (≈ 39 µM)
MIC ([6]; K. pneumoniae 848844 (KPC)): 16 µg/mL (≈ 39 µM)
MIC ([6]; K. pneumoniae 897067 (KPC)): 2 µg/mL (≈ 4.87 µM)
MIC ([6]; K. pneumoniae UMM (KPC-2, SHV-5, TEM-1)): 1 µg/mL (≈ 2.44 µM)
MIC50 [7]: 8 µg/mL (≈ 19.5 µM)
MIC90 [7]: ≥ 64 µg/mL
MIC (E. coli ESBL4 (CTX-M-15) [8]): 32 µg/mL (≈ 78 µM)
Fold increase in MIC compared to vector control [9]: 16 and 32
Fold increase in MIC compared to vector control ([9]; E. coli expressing ACT-17 (class C), inhibitor fixed at 4 μg/ml): 1,024
Fold increase in MIC compared to vector control ([9]; E. coli expressing CMY-2 (class C), inhibitor fixed at 4 μg/ml): 1,024
Fold increase in MIC compared to vector control ([9]; E. coli expressing CMY-42 (class C), inhibitor fixed at 4 μg/ml): ≥1,024
Fold increase in MIC compared to vector control ([9]; E. coli expressing CTX-M-15 (class A), inhibitor fixed at 4 μg/ml): 64
Fold increase in MIC compared to vector control ([9]; E. coli expressing GES-5 (class A), inhibitor fixed at 4 μg/ml): 8
Fold increase in MIC compared to vector control ([9]; E. coli expressing NDM-1 (class B), inhibitor fixed at 4 μg/ml): ≥1,024
Fold increase in MIC compared to vector control ([9]; E. coli expressing OXA-23 (class D), inhibitor fixed at 4 μg/ml): 2
Fold increase in MIC compared to vector control ([9]; E. coli expressing OXA-48 (class D), inhibitor fixed at 4 μg/ml): 4
Fold increase in MIC compared to vector control ([9]; E. coli expressing OXA-163 (class D), inhibitor fixed at 4 μg/ml): 32
Fold increase in MIC compared to vector control ([9]; E. coli expressing OXA-181 (class D), inhibitor fixed at 4 μg/ml): 2
Fold increase in MIC compared to vector control ([9]; E. coli expressing P99/AmpC (class C), inhibitor fixed at 4 μg/ml): ≥1,024
Fold increase in MIC compared to vector control ([9]; E. coli expressing PER-1 (class A), inhibitor fixed at 4 μg/ml): 1,024
Fold increase in MIC compared to vector control ([9]; E. coli expressing SHV-5 (class A), inhibitor fixed at 4 μg/ml): 128
Fold increase in MIC compared to vector control ([9]; E. coli expressing SHV-12 (class A), inhibitor fixed at 4 μg/ml): 256
Fold increase in MIC compared to vector control ([9]; E. coli expressing TEM-10 (class A), inhibitor fixed at 4 μg/ml, modal MIC, 4 replicates): 4
Fold increase in MIC compared to vector control ([9]; E. coli expressing VEB-9 (class A), inhibitor fixed at 4 μg/ml): ≥1,024
MIC ([9]; Escherichia coli, read-out: Vector control MIC): 1 µg/mL (≈ 2.44 µM)
MIC [10]: 64 µg/mL (≈ 156 µM)
